From PMC6257622, “Discovery and Structure–Activity-Relationship Study of N-Alkyl-5-hydroxypyrimidinone Carboxamides as Novel Antitubercular Agents Targeting Decaprenylphosphoryl-β-D-ribose 2′-Oxidase” (Journal of Medicinal Chemistry, 2018)
In brackets after ≈: the same amount, converted by molar mass.

Key:
Assay type in all cases: cell-based, Mycobacterium tuberculosis
[1] = test system: dprE12–TetON1 mutant (dprE1–dprE2 operon); settings: removal of anhydrotetracycline; OD580nm at day 10 relative to DMSO control
Mtb DprE1 Y314C mutant = test system: Mtb DprE1 Y314C mutant
Mtb DprE1 P116S mutant = test system: Mtb DprE1 P116S mutant
[2] = test system: P01-resistant mutants of Mtb H37Rv
Mtb DprE1 N364S mutant = test system: Mtb DprE1 N364S mutant
Mtb DprE1 Y314H mutant = test system: Mtb DprE1 Y314H mutant

**Q.** `C[C@H]1COC2(CCN(c3nc(=O)c4cc(C(F)(F)F)cc([N+](=O)[O-])c4s3)CC2)O1` [BTZ043, reference compound] was tested. Which “effect of dprE1–dprE2 transcriptional repression on susceptibility / growth inhibition” value (from here on “effect … on susceptibility / growth inhibition”) [1] did it give?
**A.** Its value is “increase in susceptibility”.

**Q.** Which “MIC, DprE1 mutation Y314C” value (Mtb DprE1 Y314C mutant) does the source give for `Cn1c(Cc2ccccc2C(F)(F)F)nc(C(=O)NCc2ccccc2)c(O)c1=O` [Compound P01, N-Benzyl-5-hydroxy-1-methyl-6-oxo-2-(2-(trifluoromethyl)benzyl)-1,6-dihydropyrimidine-4-carboxamide] here?
**A.** Its value is 25 µM (≈ 10.4 µg/mL).

**Q.** And the “fold change of MIC, Y314C” value (Mtb DprE1 Y314C mutant)?
**A.** Its value is 8.

**Q.** What about the “MIC, DprE1 mutation P116S” value (Mtb DprE1 P116S mutant) of the same compound?
**A.** Its value is 18.8 µM (≈ 7.85 µg/mL).

**Q.** What about the “fold change of MIC, P116S” value (Mtb DprE1 P116S mutant) of the same compound?
**A.** Its value is 6.

**Q.** And the “effect … on susceptibility / growth inhibition” value [1]?
**A.** Its value is “more growth inhibition”.

**Q.** And the “level of resistance of P01-resistant mutants compared with the parental strain” value [2]?
**A.** The value was “more than 10 fold”.

**Q.** What about the mutation frequency ([2]; at 10× MIC on solid medium) of the same compound?
**A.** The mutation frequency was 7 × 10^–9.

**Q.** What about the “MIC, DprE1 mutation N364S” value (Mtb DprE1 N364S mutant) of the same compound?
**A.** The value was 2.34 µM (≈ 0.977 µg/mL).

**Q.** And the “fold change of MIC, N364S” value (Mtb DprE1 N364S mutant)?
**A.** The value was 0.75.

**Q.** And the “MIC, DprE1 mutation Y314H” value (Mtb DprE1 Y314H mutant)?
**A.** Its value is over 50 µM.

**Q.** And the “fold change of MIC, Y314H” value (Mtb DprE1 Y314H mutant)?
**A.** The value was over 16.

**Q.** How did the “effect … on susceptibility / growth inhibition” value [1] turn out when `CCn1c(Cc2ccccc2C(F)(F)F)nc(C(=O)NCc2ccccc2)c(O)c1=O` [Compound P04, N-Benzyl-1-ethyl-5-hydroxy-6-oxo-2-(2-(trifluoromethyl)benzyl)-1,6-dihydropyrimidine-4-carboxamide] was run?
**A.** Its value is “more growth inhibition”.

**Q.** Which “effect … on susceptibility / growth inhibition” value [1] does the source give for `CC(NC(=O)c1nc(Cc2ccccc2C(F)(F)F)n(C)c(=O)c1O)c1ccccc1` (stereo not shown) [Compound P13, 5-Hydroxy-1-methyl-6-oxo-N-(1-phenylethyl)-2-(2-(trifluoromethyl)benzyl)-1,6-dihydropyrimidine-4-carboxamide] here?
**A.** Its value is “did not result in growth inhibition”.

**Q.** With `CCOC(=O)NC(=O)c1ccsc1NC(=O)c1nc2ccccc2s1` [TCA1, reference compound] as the compound, how does the “effect … on susceptibility / growth inhibition” value [1] read?
**A.** Its value is “increase in susceptibility”.

**Q.** `CC[C@@H](CO)NCCN[C@@H](CC)CO` [ethambutol, reference compound] was tested. Which “effect … on susceptibility / growth inhibition” value [1] did it give?
**A.** Its value is “equipotent efficacy”.
